Test results taken from article PMC12649225, “Machine Learning-Identified Potent Antimicrobial Peptides Against Multidrug-Resistant Bacteria and Skin Infections” (Antibiotics, 2025).
Read-outs that look alike come from different tables or passages of the source. Residues, ends and D or L forms follow the SMILES beside them.

Tests used:
[1] = tested on: BJ human skin fibroblast cells; experiment: WST-1 metabolic activity assay (cell viability); settings: lowest concentration causing <70% metabolic activity (WST-1); BJ fibroblasts; 24 h; DMEM with 2% FBS; 0.05-60 µM
Description: BJ human skin fibroblast cells (ATCC CRL-2522; RRID: CVCL_3653; LGC Standards, Germany (September 2023)) were cultured in Dulbecco’s Modified Eagle Medium (DMEM; Gibco, Waltham, MA, USA) supplemented with 10% (v/v) foetal bovine serum (FBS; Sigma-Aldrich) and 1% (v/v) penicillin/streptomycin (pen/strep; Gibco). Cell suspensions (5 × 10^5 cells/mL) were seeded into 96-well plates (100 μL/well; Thermo Scientific, Waltham, MA, USA) and allowed to adhere for 24 h. Monolayers were then exposed to two-fold serial dilutions of GDST peptides, their RI variants, and reference peptides (final concentrations: 0.05 to 60 µM) in fresh DMEM with 2% (v/v) FBS for 24 h at 37 °C in a humidified atmosphere with 5% CO2.
Cell viability and membrane integrity were assessed using the water-soluble tetrazolium salt (WST-1; Roche, Basel, Switzerland) assay and the lactate dehydrogenase (LDH; Abcam, Cambridge, UK) assay, respectively, according to manufacturer instructions. Results were expressed as percentages of metabolic activity and LDH leakage relative to untreated control cells and the positive lysis control, respectively. The cytotoxic concentration was defined as the lowest peptide concentration causing <70% metabolic activity and >30% LDH leakage. All experiments were performed in triplicate.

S. aureus JAR060131 [2] = experiment: SYTOX Green membrane permeabilization assay; assay type: cell-based, Staphylococcus aureus; settings: for Concentrations causing rapid rise in SYTOX fluorescence, S. aureus: RPMI, 1 μM SYTOX Green, 90 min, 37 °C; for Time to rise in SYTOX fluorescence intensity after peptide addition, S. aureus: at both sublethal and lethal concentrations
Description: (§1) Control samples were exposed to RPMI only. As a positive control, heat-killed bacteria were incubated at 95 °C for 10 min to induce maximum membrane permeabilization. Fluorescence (excitation: 485 nm, emission: 520 nm) was monitored every minute for 90 min at 37 °C using a […] plate reader (Ortenberg, Germany), with peptides and positive controls added after the third cycle. Background fluorescence (SYTOX Green alone) was subtracted from all values. All assays were performed in triplicate and repeated twice independently.

A. baumannii RUH875 = experiment: SYTOX Green membrane permeabilization assay; assay type: cell-based, Acinetobacter baumannii; settings: RPMI, 1 μM SYTOX Green; for SYTOX fluorescence intensity, A. baumannii: 1- and 2-fold the LC99.9_2h concentrations, over 90 min; for Concentrations inducing membrane permeabilization / SYTOX uptake: 90 min, 37 °C
Description: as §1

[3] = tested on: S. aureus JAR060131 biofilm; experiment: Biofilm killing; assay type: cell-based, Staphylococcus aureus; settings: for Concentration giving ≥3-log reduction of S. aureus biofilm CFU within 24 h: 24 h treatment, >3 log for BP2 and pexiganan; for Concentration giving ≥3-log reduction of S. aureus biofilm CFU within 2 h / Concentration giving complete eradication of S. aureus biofilm within 24 h: 24 h biofilm; for Concentration giving ≥3-log reduction of S. aureus biofilm CFU within 2 h: 2 h treatment in PBS; for Concentration giving complete eradication of S. aureus biofilm within 24 h: 24 h treatment in PBS
Description: Mid-logarithmic phase cultures of A. baumannii RUH875 or S. aureus JAR060131 were diluted to 1 × 10^8 CFU/mL in RPMI supplemented with 1% glucose. A total of 100 μL of each suspension was added to flat-bottom polystyrene 96-well microplates (Costar) and incubated under static conditions at 37 °C in a humidified atmosphere for 24 h to allow biofilm formation. After 24 h, planktonic bacteria were removed, and wells were carefully washed with 100 μL PBS [60]. […] Control samples were exposed to 100 μL of PBS only.
Biofilms were treated at 37 °C for either 2 or 24 h. […] Plates were sealed and sonicated for 5 min (Elmasonic, Singen, Germany; 45 kHz) at room temperature to dislodge adherent bacteria. […] Quantitative cultures were performed by plating serial 10-fold dilutions on sheep blood agar, and results were expressed as log10 CFU per well. The lower limit of detection was three CFU. Each condition was tested in six replicates.

S. aureus JAR060131 [4] = assay type: cell-based; settings: for LC99.9 S. aureus JAR060131 50% Plasma 18 h: JAR060131, 18 h
E. faecium LUH15122 = assay type: cell-based; settings: for LC99.9 E. faecium LUH15122 50% Plasma 18 h / LC99.9 E. faecium LUH15122 RPMI 18 h: LUH15122, 18 h
[5] = 50% plasma, 2 h, median of three independent experiments

CC[C@@H](C)[C@@H](NC(=O)[C@@H](C)NC(=O)[C@@H](CCCCN)NC(=O)[C@@H](CCCCN)NC(=O)[C@@H](Cc1c[nH]c2ccccc12)NC(=O)[C@@H](Cc1c[nH]c2ccccc12)NC(=O)[C@@H](CCCNC(=N)N)NC(=O)[C@@H](CC(C)C)NC(=O)[C@@H](CC(C)C)NC(C)=O)C(=O)N[C@H](CCCCN)C(=O)N[C@@H](C(=O)N[C@H](Cc1c[nH]c2ccccc12)C(=O)N[C@H](CCCNC(=N)N)C(=O)N[C@H](CCCCN)C(N)=O)C(C)C [GDST-038-RI] (HELM PEPTIDE1{[ac].[dL].[dL].[dR].[dW].[dW].[dK].[dK].[dA].[dI].[dK].[dV].[dW].[dR].[dK].[am]}$$$$V2.0; N-terminus and C-terminus assumed)
Cytotoxicity Metabolic Activity <70% [1]: 3.75 µM | Concentrations causing rapid rise in SYTOX fluorescence, S. aureus (S. aureus JAR060131 [2]): 1.88 to 3.75 µM | SYTOX fluorescence intensity, A. baumannii (A. baumannii RUH875): fluorescence levels similar to heat-killed controls | Concentration giving ≥3-log reduction of S. aureus biofilm CFU within 24 h [3]: ≥ 60 µM | LC99.9 S. aureus JAR060131 50% Plasma 2 h (S. aureus JAR060131 [4]; JAR060131, 2 h): 3.75 µM | LC99.9 S. aureus JAR060131 50% Plasma 18 h (S. aureus JAR060131 [4]): 3.75 µM | LC99.9 E. faecium LUH15122 RPMI 2 h (E. faecium LUH15122; LUH15122, 2 h): 3.75 µM | LC99.9 E. faecium LUH15122 50% Plasma 18 h (E. faecium LUH15122): 3.75 µM | LC99.9 E. faecium LUH15122 RPMI 18 h (E. faecium LUH15122): 0.94 µM

CC[C@@H](C)[C@@H](NC(=O)[C@@H](CC(C)C)NC(=O)[C@@H](CCCCN)NC(=O)[C@@H](CCCCN)NC(=O)[C@H](NC(=O)[C@@H](Cc1c[nH]c2ccccc12)NC(=O)[C@@H](CCCNC(=N)N)NC(=O)[C@@H](Cc1ccccc1)NC(=O)[C@@H](CC(C)C)NC(C)=O)C(C)C)C(=O)N[C@H](CCCCN)C(=O)N[C@@H](C(=O)N[C@H](Cc1c[nH]c2ccccc12)C(=O)N[C@H](CCCNC(=N)N)C(=O)N[C@H](CCCCN)C(N)=O)C(C)C [GDST-045-RI] (HELM PEPTIDE1{[ac].[dL].[dF].[dR].[dW].[dV].[dK].[dK].[dL].[dI].[dK].[dV].[dW].[dR].[dK].[am]}$$$$V2.0; N-terminus and C-terminus assumed)
Cytotoxicity Metabolic Activity <70% [1]: 3.75 µM | Concentrations causing rapid rise in SYTOX fluorescence, S. aureus (S. aureus JAR060131 [2]): 1.88 to 3.75 µM | SYTOX fluorescence intensity, A. baumannii (A. baumannii RUH875): fluorescence levels similar to heat-killed controls | Concentration giving ≥3-log reduction of S. aureus biofilm CFU within 2 h [3]: ≥ 30 µM | Concentration giving complete eradication of S. aureus biofilm within 24 h [3]: 120 µM | LC99.9 S. aureus JAR060131 50% Plasma 2 h (S. aureus JAR060131 [4]; JAR060131, 2 h): 3.75 µM | LC99.9 S. aureus JAR060131 RPMI 2 h (S. aureus JAR060131 [4]; JAR060131, 2 h): 1.88 µM | LC99.9 S. aureus JAR060131 50% Plasma 18 h (S. aureus JAR060131 [4]): 1.88 µM | LC99.9 E. faecium LUH15122 50% Plasma 2 h (E. faecium LUH15122; LUH15122, 2 h): 1.88 µM | LC99.9 E. faecium LUH15122 RPMI 2 h (E. faecium LUH15122; LUH15122, 2 h): 0.94 µM | LC99.9 E. faecium LUH15122 50% Plasma 18 h (E. faecium LUH15122): 3.75 µM | LC99.9 E. faecium LUH15122 RPMI 18 h (E. faecium LUH15122): 0.94 µM

Ac-KRWVKIAKKWWRLL-NH2 [GDST-038]
Cytotoxicity Metabolic Activity <70% [1]: 3.75 µM | Time to rise in SYTOX fluorescence intensity after peptide addition, S. aureus (S. aureus JAR060131 [2]): ≤ 1 min | SYTOX fluorescence intensity, A. baumannii (A. baumannii RUH875): fluorescence levels similar to heat-killed controls | Concentrations inducing membrane permeabilization / SYTOX uptake (A. baumannii RUH875): 0.47 µM | S. aureus biofilm CFU reduction within 2 h ([3]; 2 h treatment, concentration not given): 5.1 log CFU | Concentration giving ≥3-log reduction of S. aureus biofilm CFU within 2 h [3]: ≥ 60 µM | Concentration giving ≥3-log reduction of S. aureus biofilm CFU within 24 h [3]: 120 µM | LC99.9 S. aureus JAR060131 50% Plasma 2 h (S. aureus JAR060131 [4]; [5]): 1.88 µM | LC99.9 S. aureus JAR060131 RPMI 2 h (S. aureus JAR060131 [4]; JAR060131, 2 h): 0.94 µM | LC99.9 S. aureus JAR060131 50% Plasma 18 h (S. aureus JAR060131 [4]): 0.94 µM | LC99.9 E. faecium LUH15122 50% Plasma 2 h (E. faecium LUH15122; [5]): 1.88 µM | LC99.9 E. faecium LUH15122 50% Plasma 18 h (E. faecium LUH15122): 7.5 µM | LC99.9 E. faecium LUH15122 RPMI 18 h (E. faecium LUH15122): 0.94 µM | LC99.9 E. faecium LUH15122 RPMI 2 h (E. faecium LUH15122; RPMI, 2 h, median of three independent experiments): 1.88 µM

Ac-KRWVKILKKVWRFL-NH2 [GDST-045]
Cytotoxicity Metabolic Activity <70% [1]: 3.75 µM | Time to rise in SYTOX fluorescence intensity after peptide addition, S. aureus (S. aureus JAR060131 [2]): ≤ 1 min | SYTOX fluorescence intensity, A. baumannii (A. baumannii RUH875): fluorescence levels similar to heat-killed controls | Concentration giving ≥3-log reduction of S. aureus biofilm CFU within 2 h [3]: ≥ 7.5 µM | Concentration giving complete eradication of S. aureus biofilm within 24 h [3]: ≥ 30 µM | LC99.9 S. aureus JAR060131 50% Plasma 2 h (S. aureus JAR060131 [4]; JAR060131, 2 h): 3.75 µM | LC99.9 S. aureus JAR060131 RPMI 2 h (S. aureus JAR060131 [4]; JAR060131, 2 h): 0.94 µM | LC99.9 S. aureus JAR060131 50% Plasma 18 h (S. aureus JAR060131 [4]): 1.88 µM | LC99.9 E. faecium LUH15122 50% Plasma 2 h (E. faecium LUH15122; LUH15122, 2 h): 0.94 µM | LC99.9 E. faecium LUH15122 RPMI 2 h (E. faecium LUH15122; LUH15122, 2 h): 0.94 µM | LC99.9 E. faecium LUH15122 50% Plasma 18 h (E. faecium LUH15122): 3.75 µM | LC99.9 E. faecium LUH15122 RPMI 18 h (E. faecium LUH15122): 0.94 µM

Ac-LKRVWKRVFKLLKRYWRQLKKPVR-NH2 (N-terminus and C-terminus assumed) [SAAP-148, reference compound]
Cytotoxicity Metabolic Activity <70% [1]: 3.75 µM | Concentrations causing rapid rise in SYTOX fluorescence, S. aureus (S. aureus JAR060131 [2]): 0.23 to 1.88 µM | Concentrations inducing membrane permeabilization / SYTOX uptake (A. baumannii RUH875): 0.47 to 3.75 µM
